Test results as given in patent US9777258B2, “Methods for differentiating cells into hepatic stellate cells and hepatic sinusoidal endothelial cells, cells produced by the method, and methods for using the cells” (Katholieke Universiteit Leuven, priority 2010, dated 2017).

System: Cyp1a2
Assay: Cytochrome P450 activity (P450-Glo Assay, induction of Cyp1a2)
Settings: mouse iPS-derived hepatocyte-like cells kept in final maturation medium until day 42; incubation with 100 μM phenobarbital
Protocol: Cytochrome P450 activity. Cytochrome […] activity was detected by using the non-lytic method of P450-Glo™ Assay (Promega V8771). Mouse iPS cells were incubated with luminogenic substrate (Luciferin-ME) for 4 hours at 37° C. 50 μl was mixed with 50 μl Luciferin Detection Reagent in triplicate. Mean luminescence was calculated from 11 consecutive time points with 2 minutes interval. Induction of Cyp1a2 was performed by incubation with 100 μM phenobarbital.

SMILES: CCC1(c2ccccc2)C(=O)NC(=O)NC1=O [phenobarbital]
- increase of Cyp1a2 activity: 45%
